For data set [1] the following is noted: cited from earlier work.
The nature of data set [2]: Relative degree of crystallinity (RDC) by XRPD. The class given is physicochemical. The following applies: at 10% DL SD with AGF. As for the experimental part: The term “relative degree of crystallinity (RDC),” as used herein is the degree of crystallinity of the therapeutic agent in the dosage form relative to the degree of crystallinity of the neat therapeutic agent. RDC is calculated using the following formula: RDC=I sample/I therapeutic agent I sample: peak height of the formulation under investigation at a chosen angle (2θ) I therapeutic agent: peak height of the neat therapeutic agent at the same angle that was chosen for the sample (2θ)
Powder X-ray diffraction of the ibuprofen-arabinogalactan MSDs was carried out to determine the crystallinity of the ibuprofen. Powder samples ([…]) were placed on a sample holder and the diffractograms were collected using a Bruker D8 diffractometer (Madison, Wis.) with Cu Kα radiation. The voltage of 40 kV was used and the current was 40 mA. The samples were scanned from 2 θ to 40 θ at a rate of 2 θ/minute. The data analysis was done using Bruker-AXs EVA software (version 15.0).
XRPD were collected using Rigaku D-Max B X-ray Diffractometer (Tokyo, Japan). The powder sample size of 0.5 gram was used and samples were run at 35 kV at 15 mA and […]. JADE software (version 9) was used to process, acquire and analyze the data.

Data set [3] in a line: Equilibrium solubility of drug in polymer solution in 0.1N HCl. The following applies: for solubility thermodynamic at 72 h: 0.1 N HCl without polymer, simulated gastric fluid, thermodynamic from solid, 0.1 N HCl, 37 C, no polymer, read-out: saturation / equilibrium solubility of neat drug; for fold increase in drug solubility in the presence of AGF polymer: AGF dissolved in 0.1N HCl, 0% to 3%, ITRA and KETO at 3%. The class given is physicochemical. As for the experimental part: Anal. Chem. Instrum. […] An excess of IBU (200 mg) was added to 10 ml of polymer solution in 0.1N HCl in a stoppered glass vial and was bath sonicated for 30 minutes. The polymer concentrations ranged from 0% to 3% (0 mg/ml to 30 mg/ml). The vials were kept in a shaking water bath at 37 C and at 50 rpm for 72 hours to obtain equilibrium. After 72 hours the shaker was turned off and the samples were kept at a standstill at 37 C for 3 hours to settle the undissolved drug at the bottom of the glass vials. The supernatant was filtered using a 0.45 micron filter.
For an equilibrium study of itraconazole, 50 mg itraconazole (ITRA) was added to 20 ml of AGF polymer solution in 0.1 N HCl.

Data set [4] in a line: In vitro drug dissolution, USP basket method, 0.1 N HCl. Type of data set: physicochemical. The settings on record: for % drug release at 15 minutes / % drug release at 30 minutes / % drug release at 120 minutes: 0.1N HCl, AGF formulations. As for the experimental part: (§1) The in vitro drug dissolution rates of the dosage forms listed in Table 4 below were determined by the USP basked method (270 mesh, 53 micron pore size). The Van Kel VK7010 dissolution system was employed. 900 ml of 0.1 N HCl at 37° C. was used as a dissolution medium. The media was selected to mimic gastric pH and to allow greater discrimination of ibuprofen dissolution profiles due to formulation and processing effects. The dissolution experiment was run at 100 rpm. Each sample contained a dosage form equivalent to 25 mg of ibuprofen to maintain the non sink conditions, i.e. to employ a volume of medium (900 ml in this case) that is less than the volume of medium required for sink conditions, which is three times that required in order to form a saturated solution of drug. In vitro dissolution of 25 mg of neat ibuprofen was used as a control. At appropriate time intervals, samples were collected and replaced by fresh media. Each sample was filtered and the drug was analyzed using Agilent/HP 8453 UV-Vis spectrophotometer (λmx=222 nm). The experiment was conducted in triplicate. T50 (time for 50% drug release), T60 (time for 60% drug release), and T80 (time for 80% drug release) was recorded directly from the dissolution profiles.
as §1, with “PMs and MSDs made with ibuprofen and AGF or HPMCK3” for “the dosage forms listed in Table 4 below”, “contained an MSD or” for “contained”, “PM” for “dosage form”
In vitro basket dissolution was carried out on SDM and PM formulations as described in Example 3. Each sample of ITRA AGF SDM contained an amount equivalent to 25 mg of ITRA to maintain the non sink conditions. ITRA was analyzed using an Agilent/HP 8453 UV-Vis spectrophotometer (λmax=257 nm).
UV analysis was conducted at λmax=260 nm.
The degree of similarity between the dissolution profiles was calculated using the following equation from Moore and Flanner, 1996, Pharm. Tech. 20:64-74, and using data points up to 85% drug release (Shah et al., 1998, Pharm. Res. 15:889-896):
Two dissolution profiles would be deemed similar if the average difference between the reference and the test assay at the same time point were less than 10%. The similarity factor value would then not be less than 50%.

Data set [5] is described as follows: Physical stability: XRPD RDC at accelerated storage conditions. Type of data set: physicochemical. The settings on record: IBU as reference, 2θ of 22.4°. As for the experimental part: The RDC was measured by XRPD as described above for the dosage forms listed in Table 22 at various accelerated storage conditions. Batches of IBU AGF SDM, IBU HPMCK3 SDM, IBU HPMCK3 MSD and IBU AGF MSD at 10% drug load and 20% drug load were prepared as described above. In addition, 10% IBU AGF MSD and 10% IBU AGF SDM batches were prepared with 0.02% butylated hydroxytoluene (BHT), an antioxidant. […] 60% relative humidity and 40° C. […] These findings were confirmed by DSC (not shown).

Structures are written as SMILES. Converted amounts (≈) assume the structure as drawn. Like-named read-outs stand apart in the source and are kept apart here.

The Solubility is the dissolved amount per volume that the medium holds. Consider `CC(=O)N1CCN(c2ccc(OC[C@H]3CO[C@](Cn4ccnc4)(c4ccc(Cl)cc4Cl)O3)cc2)CC1` (racemic) [KETOC, ketoconazole], for which, in data set [1], the Solubility was 10 µg/mL (≈ 18.8 µM).
For `CCCNC(=O)NS(=O)(=O)c1ccc(Cl)cc1` [CHLOPR, chlorpropamide], in data set [1] (water at pH 6), the Solubility is 2500 µg/mL (≈ 9030 µM).
As to `C[C@@H](C(=O)O)c1ccc(-c2ccccc2)c(F)c1` [FLURBI, flurbiprofen], the Solubility in data set [1] is 482 µg/mL (≈ 1970 µM).
The molecule `CC(C(=O)O)c1cccc(Oc2ccccc2)c1` (stereo not shown) [Fenoprofen, fenoprofen] yielded an RDC value in data set [2] of 0.125. Besides, the Solubility in data set [1] (for its calcium salt) is <<<<<<2500 μg/ml.
For `CC(C)Cc1ccc(C(C)C(=O)O)cc1` (stereo not shown) [IBU, Ibuprofen], in data set [3], the solubility thermodynamic at 72 h was 37 µg/mL (≈ 179 µM) and the “fold increase in drug solubility in the presence of AGF polymer” value worked out at 7.3 fold. Moreover, in data set [3] (control polymer HPMCK3 in 0.1N HCl), the “IBU solubility with increasing HPMCK3 concentration” value was “did not enhance the solubility”. For the same molecule, in data set [4], the “% drug release at 15 minutes” value was 8%, the “% drug release at 30 minutes” value worked out at 27% and the “% drug release at 120 minutes” value came to 41%. The “T60 (time for 60% drug release)” value in data set [4] (900 ml 0.1 N HCl, 37° C., 100 rpm, 25 mg ibuprofen, non sink) amounted to 300 min. In addition, in data set [5], the “XRPD RDC, 25° C. and 0% relative humidity (6 Months)” value amounted to 1; the “XRPD RDC, 25° C. and 60% relative humidity (6 Months)” value was 1; the “XRPD RDC, 40° C. and 0% relative humidity (3 Months)” value turned out to be 1; the “XRPD RDC, 40° C. and 75% relative humidity (3 Months)” value is 1. Also, in data set [5], the “XRPD RDC, INITIAL” value was determined as 1.
For `CCC(C)n1ncn(-c2ccc(N3CCN(c4ccc(OCC5COC(Cn6cncn6)(c6ccc(Cl)cc6Cl)O5)cc4)CC3)cc2)c1=O` (stereo not shown) [ITRA, Itraconazole], in data set [3], the solubility thermodynamic at 72 h is 5720 µg/mL (≈ 8110 µM) and the “fold increase in drug solubility in the presence of AGF polymer” value amounted to 16 fold.
Turning to `CC(C(=O)O)c1cccc(C(=O)c2ccccc2)c1` (stereo not shown) [KETO, Ketoprofen], in data set [4], the “% drug release at 15 minutes” value is given as 1.8%, the “% drug release at 30 minutes” value was determined as 3.3% and the “% drug release at 120 minutes” value came out at 8.4%.
`COCCOC(=O)C1=C(C)NC(C)=C(C(=O)OC(C)C)C1c1cccc([N+](=O)[O-])c1` (stereo not shown) [NIMO, nimodipine]: the Solubility in data set [1] was 2299 µg/mL (≈ 5490 µM).
On to `CC(C)NCC(O)COc1cccc2ccccc12` (stereo not shown) [PROPFB, propranolol free base], for which the Solubility in data set [1] is 120 µg/mL (≈ 463 µM).
Consider `Clc1ccc(C(Cn2ccnc2)OCc2ccsc2Cl)c(Cl)c1` (stereo not shown) [TIOCO, tioconazole], for which the Solubility in data set [1] was roughly 2 µg/mL (≈ 5.16 µM).

(Values after patent US10994013B2, “Solid dosage form containing arabinogalactan” (TEMPLE UNIVERSITY—OF THE COMMONWEALTH SYSTEM OF HIGHER …, priority 2013, dated 2021).)
